Reference: patent publication US8435982B2, “Pharmaceutical formulation containing lipophilic drugs and milk as a solubilizing/dispensing agent and method for the preparation thereof” (Pharmathen S.A., priority 2007, dated 2013)
Converted amounts (≈) assume the structure as drawn. Read-outs that look alike come from different tables or passages of the source.

Assays:
Assay type in all cases: physicochemical
[1] = Solubility studies in alkaline buffers; settings: for solubility at 48 h: 25 °C, thermodynamic from solid
Method: Solubility studies were performed at 25° C. in various buffers. More specifically:
An excess quantity of mefenamic acid powder was added to a 25 ml flask containing 15 ml of the appropriate aqueous medium. The flasks were placed in a thermostated water bath at 25° C. under constant shaking rate of 100 rpm for 48 h. The filtrated samples of mefenamic acid were monitored at 285 nm. Calibration curves were performed for every buffer, prior to measurements.

[2] = Final pH of drug-buffer solution solubilized/dispersed in milk
Method: The appropriate buffer was added in milk gradually under magnetic stirring and the increase of the milk pH was measured. […] Subsequently, experiments were performed in order to evaluate if an active ingredient initially dissolved in buffer, when solubilized/dispersed in milk, is suitable for oral administration. […] The buffer volume was increased by 0.5 ml each time and the pH values after each addition were measured.

[3] = Stability studies of NSAID alkaline buffer solutions; settings: for total amount of drug compared to the initial value: alkaline buffer solution pH 12
Method: The drugs were dissolved in the following buffers: 0.2 M NaH2PO4—NaOH pH 12 and 0.05 M glycine-NaOH pH 12. A weighted amount of drug, corresponding to its therapeutic dose, was dissolved in the appropriate volume of alkaline buffer. […] Also, the pH values of the aqueous alkaline NSAIDs solutions were measured before storage and at the predetermined time points.

`Cc1cnc(NC(=O)C2=C(O)c3ccccc3S(=O)(=O)N2C)s1` [Meloxicam] showed a solubility at 48 h ([1]; aqueous buffer, buffer glycine/NaOH at nominal pH=12, read-out: solubility) of 15.4 mg/mL (≈ 43.8 mM).
For `CN1C(C(=O)Nc2ccccn2)=C(O)c2sccc2S1(=O)=O` [Tenoxicam], the solubility at 48 h ([1]; phosphate buffer, aqueous buffer, buffer 0.1M NaH2PO4/NaOH at nominal pH=12, read-out: solubility) was 14.3 mg/mL (≈ 42.5 mM).
With `Cc1c(Cl)cccc1Nc1ccccc1C(=O)O` [Tolfenamic acid] the solubility at 48 h ([1]; pH 12, aqueous buffer) was 35.1 mg/mL (≈ 134 mM), the “Final pH” value ([2]; dose 100 mg, 10 mg/mL, 10 mL NaH2PO4/NaOH 0.2M (nominal pH=12) in 150 ml […] fat long duration milk (tolfenamic acid)) was 7.42 and the “Final pH” value ([2]; dose 100 mg, 20 mg/mL, 5 mL NaH2PO4/NaOH 0.1M (nominal pH=12) in 150 ml […] fat long duration milk) was 6.75. For the same molecule, the “Final pH” value ([2]; dose 100 mg, 20 mg/mL, 5 mL NaH2PO4/NaOH 0.2M (nominal pH=12) in 150 ml […] fat long duration milk) was 7.03, the “Final pH” value ([2]; dose 200 mg, 20 mg/mL, 10 mL NaH2PO4/NaOH 0.2M (nominal pH=12) in 150 ml […] fat long duration milk) was 7.34 and the “Final pH” value ([2]; dose 300 mg, 25 mg/mL, 12 mL NaH2PO4/NaOH 0.2M (nominal pH=12) in 150 ml […] fat long duration milk) was 7.40.
With `Cc1cccc(Nc2ccccc2C(=O)O)c1C` [Mefenamic acid] the “solubility (FIG. 1)” value ([1]; 25° C., nominal pH range of 11-12, 0.2M NaH2PO4—NaOH buffer) was “greatly enhanced”, the “Final pH” value ([2]; dose 50 mg, 10 mg/mL, 5 mL NaH2PO4/NaOH 0.2M (nominal pH=12) in 150 ml […] fat long duration milk) was 6.81 and the “Final pH” value ([2]; dose 100 mg, 10 mg/mL, 10 mL NaH2PO4/NaOH 0.2M (nominal pH=12) in 150 ml […] fat long duration milk) was 7.01. For the same molecule, the “Final pH” value ([2]; dose 500 mg, 25 mg/mL, 20 mL NaH2PO4/NaOH 0.2M (nominal pH=12) in 150 ml […] fat long duration milk) was 7.73 and the “Final pH” value ([2]; dose 500 mg, 40 mg/mL, 12.5 mL NaH2PO4/NaOH 0.2M (nominal pH=12) in 150 ml […] fat long duration milk) was 7.35.
With `CS(=O)(=O)Nc1ccc([N+](=O)[O-])cc1Oc1ccccc1` [Nimesulide] the “total amount of drug compared to the initial value” ([3]; accelerated stability studies, 30° C.) was 99.7-100.2%, the “total amount of drug compared to the initial value” ([3]; accelerated stability studies, 40° C.) was 101-118% and the “change of pH (compared to the initial value)” value ([3]; both long term and accelerated studies, all three temperatures) was 98.8-100.2%. For the same molecule, the “% change of drug amount” value ([3]; long term and accelerated stability studies) was “within acceptable ranges” and the “total amount of drug compared to the initial value” ([3]; long term studies at 25° C. (3 and 6 months)) was 96.5-107%.
